Several values for one entry are separate records, joined by “and”; a condition that tells them apart may be missing. Equal entries are not always repeated.
Legend:
[1] = molecular target: E. coli. RNA polymerase holoenzyme supplemented with additional recombinant sigma 70 (Escherichia coli, UniProt P00579+P0A7Z4+P0A8T7+P0A8V2); experiment: Prokaryotic (E. coli) RNA Polymerase Assay (Promoter Specific); assay type: biochemical; details: positive control at 20 ug/ml, column 12 rows A and B, plates #1 and #2
Chain of E. coli. RNA polymerase holoenzyme supplemented with additional recombinant sigma 70 (P0A7Z4 whole entry): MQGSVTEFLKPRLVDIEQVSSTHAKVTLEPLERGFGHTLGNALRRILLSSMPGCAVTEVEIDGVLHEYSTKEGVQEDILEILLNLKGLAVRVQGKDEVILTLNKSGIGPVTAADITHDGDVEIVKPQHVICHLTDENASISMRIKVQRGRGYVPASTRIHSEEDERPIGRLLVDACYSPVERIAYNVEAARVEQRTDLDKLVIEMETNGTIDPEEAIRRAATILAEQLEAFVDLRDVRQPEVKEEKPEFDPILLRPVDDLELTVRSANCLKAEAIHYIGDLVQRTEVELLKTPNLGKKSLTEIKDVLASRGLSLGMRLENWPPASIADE
Chain of E. coli. RNA polymerase holoenzyme supplemented with additional recombinant sigma 70 (P0A8V2 whole entry): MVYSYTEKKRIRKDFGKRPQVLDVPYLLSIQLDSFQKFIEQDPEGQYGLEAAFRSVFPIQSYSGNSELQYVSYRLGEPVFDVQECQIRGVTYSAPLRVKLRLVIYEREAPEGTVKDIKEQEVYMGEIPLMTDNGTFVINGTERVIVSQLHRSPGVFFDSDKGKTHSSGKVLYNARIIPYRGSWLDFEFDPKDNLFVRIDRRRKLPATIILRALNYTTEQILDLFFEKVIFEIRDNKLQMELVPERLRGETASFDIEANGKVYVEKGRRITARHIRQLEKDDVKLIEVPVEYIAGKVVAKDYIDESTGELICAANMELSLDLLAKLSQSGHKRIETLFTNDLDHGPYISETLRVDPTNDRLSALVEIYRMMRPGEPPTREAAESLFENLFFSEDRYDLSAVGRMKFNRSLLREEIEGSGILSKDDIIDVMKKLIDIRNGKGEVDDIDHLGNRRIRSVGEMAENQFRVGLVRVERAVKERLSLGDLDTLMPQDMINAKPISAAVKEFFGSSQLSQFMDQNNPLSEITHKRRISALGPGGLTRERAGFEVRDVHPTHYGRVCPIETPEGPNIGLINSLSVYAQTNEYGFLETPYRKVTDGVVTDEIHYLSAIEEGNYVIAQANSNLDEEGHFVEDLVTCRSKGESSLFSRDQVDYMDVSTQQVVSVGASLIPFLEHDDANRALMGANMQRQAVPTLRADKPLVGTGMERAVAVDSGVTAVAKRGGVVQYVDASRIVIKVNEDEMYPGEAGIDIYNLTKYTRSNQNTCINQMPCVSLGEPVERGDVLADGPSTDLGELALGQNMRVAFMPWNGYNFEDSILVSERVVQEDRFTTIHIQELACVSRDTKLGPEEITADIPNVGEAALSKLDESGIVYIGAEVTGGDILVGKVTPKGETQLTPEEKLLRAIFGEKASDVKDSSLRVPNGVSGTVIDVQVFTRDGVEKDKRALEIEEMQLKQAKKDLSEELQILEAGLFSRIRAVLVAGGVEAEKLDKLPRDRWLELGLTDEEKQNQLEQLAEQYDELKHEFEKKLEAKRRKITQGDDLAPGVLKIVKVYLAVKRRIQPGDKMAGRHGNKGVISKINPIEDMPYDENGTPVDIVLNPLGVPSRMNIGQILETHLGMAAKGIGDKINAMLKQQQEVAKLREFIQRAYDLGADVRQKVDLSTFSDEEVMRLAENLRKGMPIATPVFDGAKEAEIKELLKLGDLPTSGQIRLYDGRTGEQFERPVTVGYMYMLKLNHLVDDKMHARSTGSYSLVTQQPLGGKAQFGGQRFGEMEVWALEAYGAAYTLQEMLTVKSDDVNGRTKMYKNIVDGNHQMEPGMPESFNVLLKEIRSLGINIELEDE
Chain of E. coli. RNA polymerase holoenzyme supplemented with additional recombinant sigma 70 (P0A8T7 whole entry): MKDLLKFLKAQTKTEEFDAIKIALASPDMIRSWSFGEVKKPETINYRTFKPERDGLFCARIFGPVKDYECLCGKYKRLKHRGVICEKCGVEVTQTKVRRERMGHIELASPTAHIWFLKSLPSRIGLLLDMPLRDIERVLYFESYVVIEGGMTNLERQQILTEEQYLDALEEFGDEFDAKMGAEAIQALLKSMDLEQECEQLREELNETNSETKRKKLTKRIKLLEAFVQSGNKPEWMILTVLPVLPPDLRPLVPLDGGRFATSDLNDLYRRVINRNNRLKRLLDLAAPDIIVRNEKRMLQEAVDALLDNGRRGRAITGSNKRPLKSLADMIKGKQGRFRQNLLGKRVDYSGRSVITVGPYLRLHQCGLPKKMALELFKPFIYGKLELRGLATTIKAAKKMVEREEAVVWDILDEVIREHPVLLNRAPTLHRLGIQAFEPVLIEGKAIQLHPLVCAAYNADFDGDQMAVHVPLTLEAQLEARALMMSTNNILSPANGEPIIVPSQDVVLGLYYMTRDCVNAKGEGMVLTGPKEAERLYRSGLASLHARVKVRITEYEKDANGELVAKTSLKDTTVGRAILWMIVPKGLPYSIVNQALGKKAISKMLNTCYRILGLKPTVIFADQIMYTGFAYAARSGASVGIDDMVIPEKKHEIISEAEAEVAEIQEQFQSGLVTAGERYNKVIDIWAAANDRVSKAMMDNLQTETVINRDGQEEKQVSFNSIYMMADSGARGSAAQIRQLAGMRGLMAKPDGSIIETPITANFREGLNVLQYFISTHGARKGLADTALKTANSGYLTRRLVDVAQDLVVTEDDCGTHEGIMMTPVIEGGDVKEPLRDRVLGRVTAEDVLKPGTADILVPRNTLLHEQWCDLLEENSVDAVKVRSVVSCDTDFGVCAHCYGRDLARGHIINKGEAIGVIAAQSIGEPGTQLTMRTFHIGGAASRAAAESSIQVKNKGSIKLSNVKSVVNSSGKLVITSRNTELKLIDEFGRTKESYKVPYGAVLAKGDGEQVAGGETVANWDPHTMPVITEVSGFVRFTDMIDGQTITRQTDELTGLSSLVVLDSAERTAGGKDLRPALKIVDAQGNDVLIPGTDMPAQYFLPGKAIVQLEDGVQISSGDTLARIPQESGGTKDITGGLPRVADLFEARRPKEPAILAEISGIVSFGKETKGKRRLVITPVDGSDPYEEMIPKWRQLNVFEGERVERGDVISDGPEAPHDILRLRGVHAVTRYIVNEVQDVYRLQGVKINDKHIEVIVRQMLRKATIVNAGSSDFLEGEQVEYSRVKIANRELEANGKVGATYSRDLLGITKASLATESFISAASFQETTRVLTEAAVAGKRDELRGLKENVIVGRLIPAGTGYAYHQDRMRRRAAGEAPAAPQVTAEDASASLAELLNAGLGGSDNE
Chain of E. coli. RNA polymerase holoenzyme supplemented with additional recombinant sigma 70 (P00579 whole entry): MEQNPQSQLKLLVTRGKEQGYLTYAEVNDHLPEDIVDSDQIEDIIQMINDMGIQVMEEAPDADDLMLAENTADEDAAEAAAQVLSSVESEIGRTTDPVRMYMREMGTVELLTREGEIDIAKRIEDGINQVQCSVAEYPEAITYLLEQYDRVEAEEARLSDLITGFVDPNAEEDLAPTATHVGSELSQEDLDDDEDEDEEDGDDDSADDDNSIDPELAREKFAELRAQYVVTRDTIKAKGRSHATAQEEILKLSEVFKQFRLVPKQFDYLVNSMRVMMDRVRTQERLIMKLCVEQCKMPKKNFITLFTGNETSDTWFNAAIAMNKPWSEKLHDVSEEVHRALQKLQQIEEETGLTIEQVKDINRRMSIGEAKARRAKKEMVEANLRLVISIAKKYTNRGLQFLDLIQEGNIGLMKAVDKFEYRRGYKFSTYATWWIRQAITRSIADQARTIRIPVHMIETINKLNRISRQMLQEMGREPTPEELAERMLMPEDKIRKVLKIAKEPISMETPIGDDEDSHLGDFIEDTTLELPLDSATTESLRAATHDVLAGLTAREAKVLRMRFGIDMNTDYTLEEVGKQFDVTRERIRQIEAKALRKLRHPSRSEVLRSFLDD
Description: Prokaryotic (E. coli) RNA Polymerase Assay (Promoter Specific)
In this example, the targeted polymerase is the E. coli. RNA polymerase holoenzyme (α2 ββ'[…] ) supplemented with additional recombinant sigma 70 to increase the percentage of promoter specific transcription over non-specific elongation. GTP is omitted from the assay mixture. The substrate is a pBR-based plasmid with sigma 70, -10+-30 recognition sequences and a 260 nt G-free cassette
1. Make 1.45× assay buffer from 5× stock (1× final with extract and enzyme added). Add fresh components (polyethyleneglycol (PEG), dithiothreitol (DTT), and DNA) to final 1x solution; 50 mM Tris-Ac at pH 7.8, 100 μm ATP, 100 μM UTP, 1 μM CTP, 20 μg Bovine Serum Albumin/80 μl, PEG 3%, plasmid DNA template (described above), 0.3-0.5 μg/80 μl (from dose response), 2 mM DTT. Filter using 0.45 μm filter.
2. Make 1× storage buffer (50 mM Tris-Ac, 100 mM KAc, 100 mM MgCl2, 0.25 mg/ml BSA, 5 mM DTT). Add enzyme and [[…]]-CTP to a concentration such that there are about 80-100K cpm CTP in 15 μl, and enough enzyme (from dose response) to get 3000 cpm incorporated.
(§1) 3. Add 60 μl of assay buffer to filterplate.
(§2) 4. Add 8 μl of extract or compounds to filterplate.
5. Add 15 μl of ^33 P CTP+enzyme to filterplate. Shake 10 min.
(§3) 6. Incubate 45 min at 34° C.
7. Add 100 μl of DEAE Sephacell (Pharmacia) beads (20% slurry in 60% methanol, 20 mM EDTA, 0.02% NP-40). […]

[2] = system: Eukaryotic (Yeast) RNA Polymerase II; experiment: Eukaryotic (Yeast) RNA Polymerase II Assay (Promoter Nonspecific); assay type: biochemical, Candida; details: positive control at 20 ug/ml, column 12 rows A and B, plates #1 and #2
Procedure: Eukaryotic (Yeast) RNA Polymerase II Assay (Promoter Nonspecific)
1. Make 1.45× assay buffer from 5× stock (1× final with extract and enzyme added). Add fresh components (PEG, DTT, and MnCl2) to final 1× solution: 50 mM Tris-Acetate at pH 7.8, 50 mM KAc, 0.4 mM ATP, 0.2 mM GTP and UTP, 1 μM CTP, 20 μg BSA/80 μl, PEG 3%, single stranded DNA, 0.2 μg/80 μl, 2 mM DTT, and 2 mM MnCl2. Filtrate using 0.45 μm filter.
2. Make 1× storage buffer (50 mM Tris-Ac, 100 mM KAc, 0.25 mg/ml BSA, 5 mM DTT). Add enzyme and [α-^33 P]-CTP to a concentration such that there are about 80-100 CK cpm of hot CTP in 15 μl, and enough enzyme (from dose response) to get 3000 cpm incorporated.
as §1, §2
5. Add 15 μl hot CTP+enzyme to filterplate. Shake 10 min.
as §3
7. Add 100 μl of DEAE beads (20% slurry in 60% methanol, 20 mM EDTA, 0.02% NP-40). Incubate 1 hr.
8. Wash 5 times (300 μl each) with 0.5M dibasic NaPi, 0.5% NP-40, 10% ethanol.
9. Seal bottom, add 160 μl cocktail, seal top, and count.
Column 1, rows A-D of both plate #1 and #2 are background counts. Column 1, rows E-H of both plate #1 and #2 are counts obtained without the additon of label. Column 12, rows A and B of both plate #1 and #2 are positive controls using the eukaryotic RNA polymerase II inhibitor α-amanitinat 20 ug/ml. […]

SMILES | CPM A (label incorporated into transcript) [1] | CPM A (label incorporated into transcript) [2]
CO[C@H]1/C=C/O[C@@]2(C)Oc3c(C)c(O)c4c(O)c(c(/C=N/N5CCN(C)CC5)c(O)c4c3C2=O)NC(=O)/C(C)=C\C=C\[C@H](C)[C@H](O)[C@@H](C)[C@@H](O)[C@@H](C)[C@H](OC(C)=O)[C@@H]1C [rifampin] | 717.00 CPM and 578.50 CPM and 452.50 CPM and 605.50 CPM | –
CCC(C)C1NC(=O)CNC(=O)C2Cc3c([nH]c4cc(O)ccc34)[S+]([O-])CC(NC(=O)CNC1=O)C(=O)NC(CC(N)=O)C(=O)N1CC(O)CC1C(=O)NC(C(C)C(O)CO)C(=O)N2 (stereo not drawn) [α-amanitin] | – | 6477.00 CPM and 6882.00 CPM and 6999.00 CPM and 7028.50 CPM
